Assay: Dog study: plasma concentration of 2-hydroxyflutamide after implant in prostate tissue
Assay type: in vivo
Conditions: 30, 60 or 120 mg in calcium sulphate-water implant in prostate tissue
Protocol: Composition according to example 1, composition 2, with three different 2-hydroxyflutamide (HT) concentrations, was tested in a dog study. The concentration profile of HT in prostate tissue in male dogs after local administration of the composition was investigated at different time points. Also a reference implant without HT was implanted in one dog.
Three male dogs are given 30, 60 or 120 mg of 2-hydroxy-flutamide by local implant delivery system in the prostate tissue; the total implantation time was 3 weeks.
The implant drug delivery system was inserted locally into the prostate tissue through sterile needles during rectal ultrasound guidance. The animals were under anesthesia during the insertion procedure.
Blood samples were taken every day for the first week and then once a week for the remaining weeks. Plasma samples were collected in tubes with EDTA and the plasma were transferred to microtubes of 2 ml, (sterile kryotubes from Sarstedt; No. 694.005).
The quantification of the parent drug, 2-hydroxyflutamide, in the plasma and tissue samples, was done by HPLC-MS analysis.

## CC(C)(O)C(=O)Nc1ccc([N+](=O)[O-])c(C(F)(F)F)c1 [2-hydroxyflutamide]
  extended plasma profile duration: 3 to 6 days
